In patent publication US11696918B2 (priority 2019, dated 2023):
Like-named read-outs stand apart in the source and are kept apart here.

Legend:
HSV-2 = assay: qPCR of HSV DNA copy number in dorsal root ganglia at day 28; assay type: in vivo, BALB/c mice
[1] = cited from earlier work
HSV-2 MS strain = assay type: in vivo, BALB/c mice; conditions: for Survival (surviving/total mice): 28 days; for Clinical Scores Overall Mean: daily vaginal clinical score, 4-point system of Table 4
[2] = single dose
[3] = cited from earlier work; remark: listed apart in the source
herpes simplex virus = conditions: long-term suppressive treatment; cited from earlier work
HSV infected cells = conditions: in HSV infected cells; cited from earlier work
[4] = for quantifiable in at least 1 of 3 mice through: PCV
in vivo = conditions: female, BALB/c, mouse
[5] = Group 1 HSV-2 A 125 mg/kg PO daily
[6] = Group 2: Valcyclovir 125 mg/kg po
[7] = Group 2 HSV-2 B 63 mg/kg PO daily

CC(C)[C@H](N)C(=O)OCCOCn1cnc2c(=O)[nH]c(N)nc21 [A, Valacyclovir]
Number Undetectable <3 (qPCR copy number/rxn) (HSV-2; [5]): 5
qPCR Copy number/rxn Overall Mean (HSV-2; [5]): 4.92 Copy number/rxn
protein binding [1]: < 15%
clinical score index (fraction of mice with a clinical score) (HSV-2 MS strain; Group 1 (A alone), A 125 mg/kg): 0.5
Clinical (mice that had a clinical score/total) (HSV-2 MS strain; [5]): 5/10
Hair loss (mice that had hair loss/total) (HSV-2 MS strain; [5]): 8/10
Illness (mice that had an illness score/total) (HSV-2 MS strain; [5]): 10/10
Survival (surviving/total mice) (HSV-2 MS strain; [5]): 10/10
Clinical Scores Overall Mean (HSV-2 MS strain; [5]): 0.07413
Clinical Observations: Dead (animals) [2, 6]: 0
Clinical Observations: Hypoactivity (animals) [2, 6]: 0
Clinical Observations: Normal (animals) [2, 6]: 12
Clinical Observations: Ruffled Fur (animals) [2, 6]: 0
Clinical Observations: Shoveling (animals) [2, 6]: 0
Clinical Observations: Squinting (animals) [2, 6]: 0
half-life ([3]; approximately): 2.5 to 3.4 h
Mean AUC ([3]; in vivo): 2270 to 19620 ng·h/mL
time to reach maximum concentration ([3]; in vivo): 1.6 to 1.9 h
reduction of transmission risk (herpes simplex virus): 46%

CC(=O)OCC(CCn1cnc2cnc(N)nc21)COC(C)=O [B, Famciclovir]
Number Undetectable <3 (qPCR copy number/rxn) (HSV-2; [7]): 2
qPCR Copy number/rxn Overall Mean (HSV-2; [7]): 28.32 Copy number/rxn
intracellular half-life (HSV infected cells): 10 to 20 h
clinical score index (fraction of mice with a clinical score) (HSV-2 MS strain; Group 2 (B alone), B 63 mg/kg): 0.8
Clinical (mice that had a clinical score/total) (HSV-2 MS strain; [7]): 8/10
Hair loss (mice that had hair loss/total) (HSV-2 MS strain; [7]): 6/10
Illness (mice that had an illness score/total) (HSV-2 MS strain; [7]): 9/10
Survival (surviving/total mice) (HSV-2 MS strain; [7]): 9/10
Clinical Scores Overall Mean (HSV-2 MS strain; [7]): 0.3125
Clinical Observations: Dead (animals) ([2]; Group 3: Famcyclovir 63 mg/kg po, died during first blood collection): 1
Clinical Observations: Dead (animals) ([2]; Group 3: Famcyclovir 63 mg/kg po, died during first blood collection, listed as FCV): another animal died
bioavailability ([3]; in vivo): 77%
plasma half-life ([3]; in vivo): 2 to 2.5 h
time to reach maximum concentration ([3]; in vivo): 0.5 to 0.75 h

Nc1nc2c(ncn2CCC(CO)CO)c(=O)[nH]1 [PCV, penciclovir]
t1/2 ([4]; Group 3: 63 mg/kg FCV, po, single dose, plasma): 0.97 h
quantifiable in at least 1 of 3 mice through ([4]; Group 1: 125 mg/kg VACV + 63 mg/kg FCV iv): 24 h
quantifiable in at least 1 of 3 mice through ([4]; Group 5: 63 mg/kg VACV + 32 mg/kg FCV po): 24 h
quantifiable in at least 1 of 3 mice through ([4]; Group 8: 500 mg/kg VACV + 250 mg/kg FCV po): 24 h
AUClast Mean ([4]; female, BALB/c, mouse, in vivo, po, 63 mg/kg): 10609 ng·h/mL
AUC(0-inf) (in vivo; iv, 63 mg/kg, AUCinf): 15200 ng·h/mL
AUC(0-t) (in vivo; iv, 63 mg/kg, AUClast): 15100 ± 2600 ng·h/mL
AUC(0-t) (in vivo; iv, 63 mg/kg, AUClast Mean): 15100 ng·h/mL
Cmax (in vivo; iv, 63 mg/kg, Cmax): 8800 ng/mL
Cmax (in vivo; iv, 63 mg/kg, Cmax Mean): 8800 ng/mL
Tmax (in vivo; iv, 63 mg/kg, Tmax, Group 1: 125 mg/kg VACV and 63 mg/kg FCV, iv, single dose, plasma): 0.083 h
half-life (in vivo; iv, 63 mg/kg, t1/2, Group 1: 125 mg/kg VACV and 63 mg/kg FCV, iv, single dose, plasma): 1.29 h
half-life (in vivo; iv, 63 mg/kg, t1/2, plasma PCV, Group 1: 125 mg/kg VACV and 63 mg/kg FCV iv): 1.29 h
AUC(0-inf) (in vivo; po, 16 mg/kg, AUCinf): 6200 ng·h/mL
AUC(0-t) (in vivo; po, 16 mg/kg, AUClast Mean): 6100 ng·h/mL
Cmax (in vivo; po, 16 mg/kg, Cmax Mean): 4590 ng/mL
Tmax (in vivo; po, 16 mg/kg, Tmax): 0.5 h
half-life (in vivo; po, 16 mg/kg, t1/2): 1.89 h
AUC(0-inf) (in vivo; po, 32 mg/kg, AUCinf): 5140 ng·h/mL
AUC(0-t) (in vivo; po, 32 mg/kg, AUClast Mean): 5010 ng·h/mL
Cmax (in vivo; po, 32 mg/kg, Cmax Mean): 3150 ng/mL
Tmax (in vivo; po, 32 mg/kg, Tmax): 0.5 h
half-life (in vivo; po, 32 mg/kg, t1/2): 2.34 h
AUC(0-inf) (in vivo; po, 63 mg/kg): 11300 ng·h/mL
AUC(0-t) (in vivo; po, 63 mg/kg): 10600 ± 727 ng·h/mL
Cmax (in vivo; po, 63 mg/kg): 8120 ± 565 ng/mL
Tmax (in vivo; po, 63 mg/kg): 0.25 h
half-life (in vivo; po, 63 mg/kg): 0.97 h
AUC(0-inf) (in vivo; po, 63 mg/kg, AUCinf): 19200 ng·h/mL
AUC(0-t) (in vivo; po, 63 mg/kg, AUClast Mean): 18400 ng·h/mL
Cmax (in vivo; po, 63 mg/kg, Cmax Mean): 7100 ng/mL
Tmax (in vivo; po, 63 mg/kg, Tmax): 0.5 h
half-life (in vivo; po, 63 mg/kg, t1/2): 2.34 h
AUC(0-inf) (in vivo; po, 125 mg/kg, AUCinf): 50900 ng·h/mL
AUC(0-t) (in vivo; po, 125 mg/kg, AUClast Mean): 50200 ng·h/mL
Cmax (in vivo; po, 125 mg/kg, Cmax Mean): 16900 ng/mL
half-life (in vivo; po, 125 mg/kg, t1/2): 1.31 h
AUC(0-inf) (in vivo; po, AUCinf): 85500 ng·h/mL
AUC(0-t) (in vivo; po, AUClast Mean): 84500 ng·h/mL
Cmax (in vivo; po, Cmax Mean): 31200 ng/mL
Tmax (in vivo; po, Tmax, Group 8: VACV 500 mg/kg and FCV 250 mg/kg in combination, po, plasma): 1 h
half-life (in vivo; po, t1/2, Group 8: VACV 500 mg/kg and FCV 250 mg/kg in combination, po, plasma): 4.3 h
half-life (in vivo; po, t1/2, plasma PCV, Group 8: 500 mg/kg VACV + 250 mg/kg FCV po): 4.3 h
